Legend:
p38alpha = target: T1, p38alpha (Homo sapiens, UniProt Q16539); assay: P38alpha enzyme inhibition assay (Alphascreen kinase activity assay); assay type: biochemical; conditions: IC50 classes; 2 hours preincubation at 25° C., 250 μM ATP; read-out: p38α inhibition
T1 construct: purchased Invitrogen PV3304
Method in brief: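 p38alpha with 0.3 μg/ml ATF-2 fusion protein in HEPES pH 7.5 buffer (10 mM MgCl2, 2 mM DTT, 1% DMSO); compounds preincubated 2 h at 25° C, then 250 μM ATP added for 1 h at 25° C. Phospho-ATF2 detected by AlphaScreen luminescence with anti-phospho-ATF2 antibody; IC50 from concentration-response curves.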

BEAS-2B cells = assay: TNFα-stimulated BEAS-2B IL-8 release assay; assay type: cell-based; conditions: Homo sapiens, IC50 classes, TNF-α 10 ng/ml, 18 h, read-out: TNFα-stimulated BEAS-2B IL-8 release inhibition
Procedure: TNFα-Stimulated BEAS-2B IL-8 Release Assay
Human bronchial epithelial cell line BEAS-2B was purchased from Sigma (St. Louis, Mo.). BEAS-2B cells were cultured in Bronchial Epithelial cell Growth Medium (BEGM), prepared by supplementing Bronchial Epithelial Basal Medium with SingleQuotes™ (Lonza, Switzerland), which contains retinoic acid, epidermal growth factor, epinephrine, transferrin, triiodothyronin, insulin, hydrocortisone, antimicrobial agents, and bovine pituitary extract. In addition, BEGM medium was supplemented with 2 mM glutamine, 100 U penicillin and 100 μg/ml streptomycin (Life Technologies), in an atmosphere of 95% air and 5% CO2 at 37° C.
BEAS-2B were seeded in 48-well plates at the density of 3×10^4 cells per well, grown to approximately 80-90% confluence. Cells were pre-incubated with p38 inhibitors for 1 hour and then stimulated with TNF-α (10 ng/ml) for 18 h at 37° C. with 5% CO2. Subsequently, supernatants were collected and used for measuring IL-8 levels using a paired antibody quantitative ELISA kit purchased from Life Technologies (detection limit: […]). All the treatments were performed at least in quadruplicate.
A concentration-response curve to each test compound was performed and the effect of compound in each experiment was expressed as a percentage inhibition of the control IL-8 release. Compound potency (IC50) was calculated by the analysis of the sigmoidal dose-response curve (variable slope) elaborated by Graph Pad PRISM4 program.

[1] = tested on: Peripheral Blood Mononuclear Cells (PBMCs); assay: LPS-stimulated PBMC TNFα release assay; assay type: cell-based; conditions: IC50 classes; human PBMC, LPS 10 ng/ml, 18 h; read-out: LPS-stimulated PBMC TNFα release inhibition
Method in brief: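 Human PBMCs from healthy donors, adhered 3 h in serum-free RPMI, received compound for 1 h in 1% FBS medium before 10 ng/ml LPS for 18 h. Supernatant TNFα was measured by MSD; IC50 from percentage inhibition of control release, at least three separate experiments.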

T1 sequence (Q16539 whole entry): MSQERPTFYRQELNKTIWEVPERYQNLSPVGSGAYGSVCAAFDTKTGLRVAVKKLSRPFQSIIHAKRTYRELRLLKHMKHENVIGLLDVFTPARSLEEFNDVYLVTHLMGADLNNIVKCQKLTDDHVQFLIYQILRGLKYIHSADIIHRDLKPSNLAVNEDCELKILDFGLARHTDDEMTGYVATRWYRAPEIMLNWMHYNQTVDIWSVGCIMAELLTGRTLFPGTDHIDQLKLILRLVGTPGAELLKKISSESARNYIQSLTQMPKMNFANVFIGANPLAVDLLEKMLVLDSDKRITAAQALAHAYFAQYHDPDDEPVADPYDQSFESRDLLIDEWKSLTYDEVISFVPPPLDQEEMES

SMILES	IC50 (p38alpha) [nM]	IC50 (BEAS-2B cells) [nM]	IC50 [1] [nM]
CNS(=O)(=O)c1cc(NC(=O)N[C@H]2CC[C@@H](Oc3ccc4nnc([C@]5(C)CCCN5C)n4c3)c3ccccc32)cc(C(C)(C)C)c1 [Example 39, 3-tert-Butyl-5-(3-{(1S,4R)-4-[3-((S)-1,2-dimethyl-pyrrolidin-2-yl)-[1,2,4]triazolo[4,3-a]pyridin-6-yloxy]-1,2,3,4-tetrahydro-naphthalen-1-yl}-ureido)-N-methyl-benzenesulfonamide]	< 1	< 0.3	< 1
CN1CCC[C@@]1(C)c1nnc2ccc(O[C@@H]3CC[C@H](NC(=O)Nc4cc(CS(C)(=O)=O)cc(C(C)(C)C)c4)c4ccccc43)cn12 [Example 42, 1-(3-tert-Butyl-5-methanesulfonylmethyl-phenyl)-3-{(1S,4R)-4-[3-((S)-1,2-dimethyl-pyrrolidin-2-yl)-[1,2,4]triazolo[4,3-a]pyridin-6-yloxy]-1,2,3,4-tetrahydro-naphthalen-1-yl}-urea]	< 1	< 0.3	< 1
CC(=O)OCc1cc(NC(=O)N[C@H]2CC[C@@H](Oc3ccc4nnc([C@@H]5CCCN5C)n4c3)c3ccccc32)cc(C(C)(C)C)c1 [Example 43, Acetic acid 3-tert-butyl-5-(3-{(1S,4R)-4-[3-((S)-1-methyl-pyrrolidin-2-yl)-[1,2,4]triazolo[4,3-a]pyridin-6-yloxy]-1,2,3,4-tetrahydro-naphthalen-1-yl}-ureido)-benzyl ester]	< 1	< 0.3	1 to 5
CC(=O)OCc1cc(NC(=O)N[C@H]2CC[C@@H](Oc3ccc4nnc([C@]5(C)CCCN5C)n4c3)c3ccccc32)cc(C(C)(C)C)c1 [Example 44, Acetic acid 3-tert-butyl-5-(3-{(1S,4R)-4-[3-((S)-1,2-dimethyl-pyrrolidin-2-yl)-[1,2,4]triazolo[4,3-a]pyridin-6-yloxy]-1,2,3,4-tetrahydro-naphthalen-1-yl}-ureido)-benzyl ester]	< 1	< 0.3	< 1
CN1CCC[C@@]1(C)c1nnc2ccc(O[C@@H]3CC[C@H](NC(=O)Nc4cc(CNS(C)(=O)=O)cc(C(C)(C)C)c4)c4ccccc43)cn12 [Example 45, N-[3-tert-Butyl-5-(3-{(1S,4R)-4-[3-((S)-1,2-dimethyl-pyrrolidin-2-yl)-[1,2,4]triazolo[4,3-a]pyridin-6-yloxy]-1,2,3,4-tetrahydro-naphthalen-1-yl}-ureido)-benzyl]-methanesulfonamide]	< 1	< 0.3	< 1
COC(=O)Nc1cc(NC(=O)N[C@H]2CC[C@@H](Oc3ccc4nnc([C@]5(C)CCCN5C)n4c3)c3ccccc32)cc(C(C)(C)C)c1 [Example 46, [3-tert-Butyl-5-(3-{(1S,4R)-4-[3-((S)-1,2-dimethyl-pyrrolidin-2-yl)-[1,2,4]triazolo[4,3-a]pyridin-6-yloxy]-1,2,3,4-tetrahydro-naphthalen-1-yl}-ureido)-phenyl]-carbamic acid methyl ester]	1 to 10	< 0.3	< 1
CN1CCC[C@@]1(C)c1nnc2ccc(O[C@@H]3CC[C@H](NC(=O)Nc4cc(C(C)(C)C)cc(S(C)(=O)=O)c4)c4ccccc43)cn12 [Example 47, 1-(3-tert-Butyl-5-methanesulfonyl-phenyl)-3-{(1S,4R)-4-[3-((S)-1,2-dimethyl-pyrrolidin-2-yl)-[1,2,4]triazolo[4,3-a]pyridin-6-yloxy]-1,2,3,4-tetrahydro-naphthalen-1-yl}-urea]	< 1	< 0.3	< 1
CN1CCC[C@@]1(C)c1nnc2ccc(O[C@@H]3CC[C@H](NC(=O)Nc4cc(CO)cc(C(C)(C)C)c4)c4ccccc43)cn12 [Example 49, 1-(3-tert-Butyl-5-hydroxymethyl-phenyl)-3-{(1S,4R)-4-[3-((S)-1,2-dimethyl-pyrrolidin-2-yl)-[1,2,4]triazolo[4,3-a]pyridin-6-yloxy]-1,2,3,4-tetrahydro-naphthalen-1-yl}-urea]	< 1	< 0.3	< 1
CN1CCC[C@@]1(C)c1nnc2ccc(O[C@@H]3CC[C@H](NC(=O)Nc4cc(C(=O)NCCO)cc(C(C)(C)C)c4)c4ccccc43)cn12 [Example 51, 3-tert-Butyl-5-(3-{(1S,4R)-4-[3-((S)-1,2-dimethyl-pyrrolidin-2-yl)-[1,2,4]triazolo[4,3-a]pyridin-6-yloxy]-1,2,3,4-tetrahydro-naphthalen-1-yl}-ureido)-N-(2-hydroxy-ethyl)-benzamide]	< 1	0.3 to 1	< 1
CN1CCC[C@@]1(C)c1nnc2ccc(O[C@@H]3CC[C@H](NC(=O)Nc4cc(C(N)=O)cc(C(C)(C)C)c4)c4ccccc43)cn12 [Example 53, 3-tert-Butyl-5-(3-{(1S,4R)-4-[3-((S)-1,2-dimethyl-pyrmlidin-2-yl)-[1,2,4]triazolo[4,3-a]pyridin-6-yloxy]-1,2,3,4-tetrahydro-naphthalen-1-yl}-ureido)-benzamide]	< 1	< 0.3	< 1
CNC(=O)c1cc(NC(=O)N[C@H]2CC[C@@H](Oc3ccc4nnc([C@@H]5CCCN5C)n4c3)c3ccccc32)cc(C(C)(C)C)c1 [Example 54, 3-tert-Butyl-N-methyl-5-(3-{(1S,4R)-4-[3-((S)-1-methyl-pyrrolidin-2-yl)-[1,2,4]triazolo[4,3-a]pyridin-6-yloxy]-1,2,3,4-tetrahydro-naphthalen-1-yl}-ureido)-benzamide]	< 1	> 1	1 to 5
CNC(=O)c1cc(NC(=O)N[C@H]2CC[C@@H](Oc3ccc4nnc([C@]5(C)CCCN5C)n4c3)c3ccccc32)cc(C(C)(C)C)c1 [Example 55, 3-tert-Butyl-5-(3-{(1S,4R)-4-[3-((S)-1,2-dimethyl-pyrrolidin-2-yl)-[1,2,4]triazolo[4,3-a]pyridin-6-yloxy]-1,2,3,4-tetrahydro-naphthalen-1-yl}-ureido)-N-methyl-benzamide]	< 1	< 0.3	< 1
Cc1c(NC(=O)N[C@H]2CC[C@@H](Oc3ccc4nnc([C@]5(C)CCCN5C)n4c3)c3ccccc32)cc(C(C)(C)C)cc1NS(C)(=O)=O [Example 56, N-[5-tert-Butyl-3-(3-{(1S,4R)-4-[3-((S)-1,2-dimethyl-pyrrolidin-2-yl)-[1,2,4]triazolo[4,3-a]pyridin-6-yloxy]-1,2,3,4-tetrahydro-naphthalen-1-yl}-ureido)-2-methyl-phenyl]-methanesulfonamide]	< 1	< 0.3	< 1
Cc1c(NC(=O)N[C@H]2CC[C@@H](Oc3ccc4nnc([C@@H]5CCCN5C)n4c3)c3ccccc32)cc(C(C)(C)C)cc1NS(C)(=O)=O [Example 57, N-[5-tert-Butyl-2-methyl-3-(3-{(1S,4R)-4-[3-((S)-1-methyl-pyrrolidin-2-yl)-[1,2,4]triazolo[4,3,a]pyridin-6-yloxy]-1,2,3,4-tetrahydro-naphthalen-1-yl}-ureido)-phenyl]-methanesulfonamide]	< 1	> 1	1 to 5
CN1CCC[C@H]1c1nnc2ccc(O[C@@H]3CC[C@H](NC(=O)Nc4cc(N5CCOCC5)cc(C(C)(C)C)c4)c4ccccc43)cn12 [Example 58, 1-(3-tert-Butyl-5-morpholin-4-yl-phenyl)-3-{(1S,4R)-4-[3-((S)-1-methyl-pyrrolidin-2-yl)-[1,2,4]triazolo[4,3-a]pyridin-6-yloxy]-1,2,3,4-tetrahydro-naphthalen-1-yl}-urea]	1 to 10	0.3 to 1	> 5
CN1CCC[C@@]1(C)c1nnc2ccc(O[C@@H]3CC[C@H](NC(=O)Nc4cc(C(C)(C)C)ccc4CO)c4ccccc43)cn12 [Example 59, 1-(5-tert-Butyl-2-hydroxymethyl-phenyl)-3-{(1S,4R)-4-[3-((S)-1,2-dimethyl-pyrrolidin-2-yl)-[1,2,4]triazolo[4,3-a]pyridin-6-yloxy]-1,2,3,4-tetrahydro-naphthalen-1-yl}-urea]	< 1	< 0.3	< 1
CN1CCCC[C@H]1c1nnc2ccc(O[C@@H]3CC[C@H](NC(=O)Nc4cc(NS(C)(=O)=O)cc(C(C)(C)C)c4)c4ccccc43)cn12 [Example 61, N-[3-tert-Butyl-5-(3-{(1S,4R)-4-[3-((S)-1-methyl-piperidin-2-yl)-[1,2,4]triazolo[4,3-a]pyridin-6-yloxy]-1,2,3,4-tetrahydro-naphthalen-1-yl}-ureido)-phenyl]-methanesulfonamide]	< 1	> 1	1 to 5
